Test results taken from US6440948B1, “Thiophene A2A receptor agonists” (CV Therapeutics, Inc., priority 1999, dated 2002).

Molecular target: T1, A2A receptor (Sus scrofa, UniProt K9IW67)
T1 construct: from tissue; host or cells: pig striatum membranes
Test: affinity for the A2A receptor in a pig striatum membrane prep (displacement of tritiated ZM 241385)
Type: binding
Conditions: pig striatal membranes, 2 nM tritiated antagonist ZM 241385, 23° C. for 2h, greater than 5 point curve
Experimental: Compounds of this invention were assayed to determine their affinity for the A2A receptor in a pig striatum membrane prep. Briefly, 0.2 mg of pig striatal membranes were treated with adenosine deaminase (2 U/mL) and 50 mM Tris buffer (pH=7,4) followed by mixing. To the pig membranes was added […] of serially diluted DMSO stock solution of the compounds of this invention at concentrations ranging from 10 nM to 100 μM or the control received […] of DMSO alone, then the: antagonist ZM 241385 in Tris buffer (50 mM, pH of 7.4) was added to achieve a final concentration of 2 nM . After incubation at 23° C. for 2h, then the solutions were filtered using a membrane harvester using multiple washing of the membranes (3x). The filter disks were counted in scintillation cocktail to determine the amount of displacement of tritiated ZM displaced by the compounds of this invention. Greater than a 5 point curve was used to generate Ki's. Compound 13 has a Ki between 1,000 and 10,000 nM.

T1 sequence (K9IW67 1-409): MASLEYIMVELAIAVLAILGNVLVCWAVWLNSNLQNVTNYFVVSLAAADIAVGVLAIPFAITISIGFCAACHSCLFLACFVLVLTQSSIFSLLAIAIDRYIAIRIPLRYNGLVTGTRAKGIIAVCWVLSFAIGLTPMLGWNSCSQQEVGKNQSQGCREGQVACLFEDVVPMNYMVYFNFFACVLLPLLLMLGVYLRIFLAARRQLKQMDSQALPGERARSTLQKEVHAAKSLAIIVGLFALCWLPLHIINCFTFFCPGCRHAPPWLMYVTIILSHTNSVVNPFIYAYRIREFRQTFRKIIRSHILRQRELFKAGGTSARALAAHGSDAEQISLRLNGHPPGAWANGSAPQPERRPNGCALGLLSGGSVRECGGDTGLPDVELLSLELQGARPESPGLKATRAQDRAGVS

Ki: 1 to 10 µM
Compound: Cc1ccc(-c2nc(N)c3ncn([C@@H]4O[C@H](CO)[C@@H](O)[C@H]4O)c3n2)s1 [Compound 13, (4S,2R,3R,5R)-2-[6-Amino-2-(5-methyl(2-thienyl))purin-9-yl]-5-(hydroxymethyl)oxolane-3,4-diol]
